Measurements as given in ChEMBL document CHEMBL4387706, “Discovery of Novel Spiroindoline Derivatives as Selective Tankyrase Inhibitors” (J Med Chem, 2019).
In brackets after ≈: the same amount, converted by molar mass. Activity calls are given as the source filed them. No cut-off for these calls is given here.

Assays:
in vitro [1] = details: mouse, liver microsomes
Description: Stability in mouse liver microsomes assessed as parent compound remaining at 1 uM measured after 30 mins in presence of NADPH by LC-MS/MS analysis

[2] = AUC (infinity) in ICR mouse at 50 mg/kg, ip; format: ADME, organism-based; parameters: dose 50 mg/kg, route intraperitoneal, time infinity; details: in vivo
in vitro [3] = details: human, liver microsomes
Description: Stability in human liver microsomes assessed as parent compound remaining at 1 uM measured after 30 mins in presence of NADPH by LC-MS/MS analysis

COLO 320DM [4] = assay: cells; details: Homo sapiens, 96 h
Description: Antiproliferative activity against human COLO320DM cells assessed as inhibition of cell growth measured after 4 days by CellTiter-Glo assay

[5] = Half life in ICR mouse at 50 mg/kg, ip; format: ADME, organism-based; details: in vivo
[6] = Protein binding in mouse serum assessed as unbound fraction at 1 uM measured after 24 hrs by LC-MS/MS analysis; format: ADME, cell-free
[7] = target: T1, Poly [ADP-ribose] polymerase tankyrase-1 (Homo sapiens, UniProt O95271)
T1 sequence (O95271 whole entry): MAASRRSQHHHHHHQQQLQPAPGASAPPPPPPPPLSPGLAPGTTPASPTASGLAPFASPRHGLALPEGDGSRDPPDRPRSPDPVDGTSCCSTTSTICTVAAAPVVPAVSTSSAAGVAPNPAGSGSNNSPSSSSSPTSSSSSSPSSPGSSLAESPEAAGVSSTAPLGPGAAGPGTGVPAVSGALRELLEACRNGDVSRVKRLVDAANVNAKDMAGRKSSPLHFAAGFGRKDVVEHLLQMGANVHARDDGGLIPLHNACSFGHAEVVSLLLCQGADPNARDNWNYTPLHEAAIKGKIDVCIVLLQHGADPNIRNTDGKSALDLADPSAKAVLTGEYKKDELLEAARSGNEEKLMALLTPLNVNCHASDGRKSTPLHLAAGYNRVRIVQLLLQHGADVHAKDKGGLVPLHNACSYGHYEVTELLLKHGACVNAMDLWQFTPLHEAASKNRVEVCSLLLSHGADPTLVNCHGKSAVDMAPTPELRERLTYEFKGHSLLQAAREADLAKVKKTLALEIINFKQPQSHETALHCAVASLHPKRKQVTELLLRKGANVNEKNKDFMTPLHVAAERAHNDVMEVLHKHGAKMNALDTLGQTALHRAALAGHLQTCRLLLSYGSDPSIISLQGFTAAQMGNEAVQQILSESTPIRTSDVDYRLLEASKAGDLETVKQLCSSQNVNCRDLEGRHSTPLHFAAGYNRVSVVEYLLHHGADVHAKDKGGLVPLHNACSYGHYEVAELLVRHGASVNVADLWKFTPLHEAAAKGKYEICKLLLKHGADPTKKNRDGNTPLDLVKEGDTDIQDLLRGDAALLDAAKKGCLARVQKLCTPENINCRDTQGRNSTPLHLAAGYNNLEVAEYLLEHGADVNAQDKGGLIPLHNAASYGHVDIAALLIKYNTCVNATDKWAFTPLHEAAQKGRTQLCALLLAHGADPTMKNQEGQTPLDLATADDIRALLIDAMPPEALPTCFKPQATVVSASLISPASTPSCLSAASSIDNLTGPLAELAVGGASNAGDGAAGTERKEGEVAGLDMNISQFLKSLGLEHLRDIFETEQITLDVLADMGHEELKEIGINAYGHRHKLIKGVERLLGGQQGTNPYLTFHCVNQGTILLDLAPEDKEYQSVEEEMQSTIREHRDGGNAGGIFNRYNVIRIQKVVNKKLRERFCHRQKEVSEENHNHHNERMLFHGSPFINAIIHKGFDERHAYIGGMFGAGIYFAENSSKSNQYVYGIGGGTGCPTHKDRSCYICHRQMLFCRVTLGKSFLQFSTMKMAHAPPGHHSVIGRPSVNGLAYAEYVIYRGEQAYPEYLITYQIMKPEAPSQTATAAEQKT
Description: Inhibition of recombinant human N-terminal TEV cleavage site-fused/FLAG-poly his-tagged TNKS SAM-PARP domain (1024 to 1327 residues) expressed in Escherichia coli assessed as reduction in auto-PARylation preincubated for 10 mins followed by biotinylated-NAD+ addition and measured after 45 mins by ELISA

[8] = Cmax in ICR mouse at 50 mg/kg, ip; format: ADME, organism-based; parameters: dose 50 mg/kg, route intraperitoneal; details: in vivo
[9] = target: T2, Poly [ADP-ribose] polymerase tankyrase-2 (Homo sapiens, UniProt Q9H2K2)
T2 sequence (Q9H2K2 whole entry): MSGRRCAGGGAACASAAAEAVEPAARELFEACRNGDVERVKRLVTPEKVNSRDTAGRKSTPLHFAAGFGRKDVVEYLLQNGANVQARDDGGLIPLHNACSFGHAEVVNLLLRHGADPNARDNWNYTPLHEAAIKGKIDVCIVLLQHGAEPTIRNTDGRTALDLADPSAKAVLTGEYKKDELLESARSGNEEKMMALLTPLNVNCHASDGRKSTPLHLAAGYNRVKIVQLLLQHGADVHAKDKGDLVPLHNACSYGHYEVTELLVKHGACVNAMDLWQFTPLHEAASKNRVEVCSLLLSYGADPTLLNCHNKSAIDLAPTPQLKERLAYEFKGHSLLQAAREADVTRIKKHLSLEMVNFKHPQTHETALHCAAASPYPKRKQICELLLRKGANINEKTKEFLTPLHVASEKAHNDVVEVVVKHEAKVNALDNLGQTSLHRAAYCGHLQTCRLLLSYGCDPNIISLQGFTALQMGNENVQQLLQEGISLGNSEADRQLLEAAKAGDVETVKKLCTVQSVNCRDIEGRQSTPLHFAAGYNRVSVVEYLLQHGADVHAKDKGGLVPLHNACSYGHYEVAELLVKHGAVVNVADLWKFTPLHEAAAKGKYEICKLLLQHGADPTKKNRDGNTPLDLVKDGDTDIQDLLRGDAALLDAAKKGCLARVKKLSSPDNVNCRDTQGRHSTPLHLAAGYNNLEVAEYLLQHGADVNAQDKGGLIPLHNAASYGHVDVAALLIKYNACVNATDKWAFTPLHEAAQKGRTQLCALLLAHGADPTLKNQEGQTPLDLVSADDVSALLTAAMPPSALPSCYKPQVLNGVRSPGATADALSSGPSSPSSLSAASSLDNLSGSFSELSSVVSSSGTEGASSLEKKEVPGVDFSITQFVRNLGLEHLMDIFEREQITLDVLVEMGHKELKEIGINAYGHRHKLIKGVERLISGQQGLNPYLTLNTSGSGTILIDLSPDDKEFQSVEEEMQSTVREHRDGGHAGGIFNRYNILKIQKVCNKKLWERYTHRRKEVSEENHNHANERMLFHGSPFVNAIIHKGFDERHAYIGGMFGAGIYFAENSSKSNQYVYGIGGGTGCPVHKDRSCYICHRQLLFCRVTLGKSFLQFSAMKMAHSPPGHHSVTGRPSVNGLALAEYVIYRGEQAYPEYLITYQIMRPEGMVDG
Description: Inhibition of recombinant human N-terminal TEV cleavage site-fused/FLAG-poly his-tagged TNKS2 SAM-PARP domain (613 to 1166 residues) expressed in Escherichia coli assessed as reduction in auto-PARylation preincubated for 10 mins followed by biotinylated-NAD+ addition and measured after 45 mins by ELISA

[10] = target: Tankyrase 1/2 (Homo sapiens) (UniProt Q9H2K2+O95271); assay: Inhibition of TNKS/TNKS2 in human COLO320DM cells assessed as upregulation of AXIN2 expression at 0.1 uM measured after 16 hrs by Western blot analysis relative to G007-LK; format: cell-based
RKO [11] = assay: Antiproliferative activity against human RKO cells assessed inhibition of cell growth measured after 5 days by MTT assay; format: functional; details: 120 h
COLO 320DM [12] = assay: Antiproliferative activity against human COLO320DM cells assessed inhibition of cell growth measured after 5 days by MTT assay; format: functional; details: 120 h
physchem = details: phosphate buffer, pH 7.4
[13] = Protein binding in human serum assessed as unbound fraction at 1 uM measured after 24 hrs by LC-MS/MS analysis; format: ADME, cell-free
Tankyrase 1/2 = target: T3, Tankyrase 1/2 (Homo sapiens, UniProt Q9H2K2+O95271)
T3 sequence (Q9H2K2 whole entry): T2 sequence (Q9H2K2 whole entry)
T3 sequence (O95271 whole entry): T1 sequence (O95271 whole entry)
Description: Inhibition of TNKS/TNKS2 (unknown origin) expressed in human DLD1 cells assessed as reduction in Wnt-signaling measured after 24 hrs by TCF-luciferase reporter gene assay

RKO [14] = assay: Antiproliferative activity against human RKO cells assessed reduction in cell viability at 0.3 uM measured after 5 days by MTT assay; format: functional, cell-based
[15] = target: Poly [ADP-ribose] polymerase 1 (Homo sapiens, UniProt P09874)
Sequence of Poly [ADP-ribose] polymerase 1 (P09874 whole entry): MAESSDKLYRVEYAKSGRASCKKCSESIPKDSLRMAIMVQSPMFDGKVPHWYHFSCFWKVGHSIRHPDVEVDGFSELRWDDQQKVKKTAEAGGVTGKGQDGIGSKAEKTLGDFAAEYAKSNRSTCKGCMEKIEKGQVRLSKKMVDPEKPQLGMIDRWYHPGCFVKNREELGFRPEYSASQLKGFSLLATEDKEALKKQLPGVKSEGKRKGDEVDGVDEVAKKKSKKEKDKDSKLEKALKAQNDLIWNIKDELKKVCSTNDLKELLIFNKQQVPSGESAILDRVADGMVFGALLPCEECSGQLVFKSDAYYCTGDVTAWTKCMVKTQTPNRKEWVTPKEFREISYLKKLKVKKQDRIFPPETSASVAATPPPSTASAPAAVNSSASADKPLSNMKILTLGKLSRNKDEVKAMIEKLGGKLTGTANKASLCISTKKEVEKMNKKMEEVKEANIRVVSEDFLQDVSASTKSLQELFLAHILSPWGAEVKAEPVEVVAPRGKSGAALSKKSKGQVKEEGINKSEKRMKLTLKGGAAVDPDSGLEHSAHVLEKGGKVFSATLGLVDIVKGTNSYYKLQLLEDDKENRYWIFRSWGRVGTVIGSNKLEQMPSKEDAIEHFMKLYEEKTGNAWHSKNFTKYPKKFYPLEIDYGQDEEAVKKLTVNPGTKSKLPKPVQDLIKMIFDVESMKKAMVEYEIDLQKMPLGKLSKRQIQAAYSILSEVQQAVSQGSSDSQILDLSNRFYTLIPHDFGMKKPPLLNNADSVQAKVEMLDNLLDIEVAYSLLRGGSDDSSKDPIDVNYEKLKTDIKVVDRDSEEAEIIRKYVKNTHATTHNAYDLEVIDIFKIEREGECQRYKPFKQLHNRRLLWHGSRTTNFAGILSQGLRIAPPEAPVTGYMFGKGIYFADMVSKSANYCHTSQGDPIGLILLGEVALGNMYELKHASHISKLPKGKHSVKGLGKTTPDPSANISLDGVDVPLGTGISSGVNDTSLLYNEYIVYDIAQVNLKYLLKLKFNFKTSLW
Description: Inhibition of recombinant human PARP1 expressed in Escherichia coli assessed as reduction in auto-PARylation using histone as substrate measured after 45 mins in presence of biotinylated-NAD+ by ELISA

[16] = Permeability of the compound by PAMPA; format: ADME; details: read-out: permeability

Row | remaining at 0.5 h, 1 µM (in vitro [1]) | AUC(0-inf) [2] | remaining at 0.5 h, 1 µM (in vitro [3]) | GI50 (COLO 320DM [4]) | half-life [5] | fraction unbound at 24 h, 1 µM [6] | IC50 [7] | Cmax [8] | IC50 [9] | fold change (FC) [10] | GI50 (COLO 320DM [12]) | solubility at 1 h, 200 µM (physchem) | fraction unbound at 24 h, 1 µM [13] | IC50 (Tankyrase 1/2) | IC50 [15] | Papp [16] | Fu ([13]; 24 h, 1 µM) | Structure (SMILES) | GI50 (RKO [11]) | Activity (RKO [14])
1 | 1.1% | 667 µM·h | 6.1% | 1500 nM | 4.8 h | 0.01 | 16.6 nM | 75.6 µM | 17 nM | 4.86 | 300 nM | 2.5 µg/mL (≈ 6.03 µM) | 0.009 | 52.9 nM | > 20000 nM |  |  | O=c1[nH]c(N2CCC3(CC2)CN(CCO)c2cccc(Cl)c23)nc2c1CCCC2 | > 10000 nM | Active
2 | 19.1% | 157 µM·h | 28.9% | 1000 nM | 4.1 h | 0.042 | 4.4 nM | 5.35 µM | 6.8 nM | 5.75 | 250 nM | 84.5 µg/mL (≈ 197 µM) | 0.018 | 13.9 nM | > 20000 nM | 1.1 ×10⁻⁶ cm/s |  | O=C1N(CCO)c2cccc(Cl)c2C12CCN(c1nc3c(c(=O)[nH]1)CCCC3)CC2 | > 10000 nM | Active
3 |  |  |  | 1400 nM |  |  | 9.2 nM |  | 11.8 nM | 3.63 | 260 nM | 74.6 µg/mL (≈ 187 µM) |  | 83.9 nM | > 20000 nM | 7.6 ×10⁻⁶ cm/s |  | O=c1[nH]c(N2CCC3(CC2)CN(CCO)c2cccc(F)c23)nc2c1CCCC2 | 90 nM | 
4 |  |  |  | 1800 nM |  |  | 6.8 nM |  | 8.2 nM | 4.1 | 190 nM | 80.1 µg/mL (≈ 194 µM) |  | 36.5 nM | > 20000 nM | 3.6 ×10⁻⁶ cm/s |  | O=C1N(CCO)c2cccc(F)c2C12CCN(c1nc3c(c(=O)[nH]1)CCCC3)CC2 | 2030 nM | 
5 |  |  |  | 3900 nM |  |  | 49.3 nM |  | 26.9 nM | 0.98 | 1770 nM | > 76.1 µg/mL |  | 362 nM | > 20000 nM | 17.4 ×10⁻⁶ cm/s |  | O=c1[nH]c(N2CCC3(CC2)CN(CCO)c2ccccc23)nc2c1CCCC2 | 220 nM | 

Further lines, the compound ahead of its results:

Row | Structure (SMILES) | remaining at 0.5 h, 1 µM (in vitro [1]) | AUC(0-inf) [2] | remaining at 0.5 h, 1 µM (in vitro [3]) | GI50 (COLO 320DM [4]) | half-life [5] | fraction unbound at 24 h, 1 µM [6] | IC50 [7] | Cmax [8] | IC50 [9] | fold change (FC) [10] | GI50 (COLO 320DM [12]) | solubility at 1 h, 200 µM (physchem) | fraction unbound at 24 h, 1 µM [13] | IC50 (Tankyrase 1/2) | IC50 [15] | Papp [16] | Fu ([13]; 24 h, 1 µM) | GI50 (RKO [11]) | Activity (RKO [14])
6 | O=C1N(CCO)c2cc(F)cc(F)c2C12CCN(c1nc3c(c(=O)[nH]1)CCCC3)CC2 | 39.1% | 106 µM·h | 39.5% | 2400 nM | 3.6 h | 0.077 | 10 nM | 48.1 µM | 15.1 nM | 3.93 | 470 nM | 76.9 µg/mL (≈ 179 µM) | 0.017 | 79.4 nM | > 20000 nM | 7.9 ×10⁻⁶ cm/s |  | > 10000 nM | Active
7 | Oc1nc(-c2ccc(C(F)(F)F)cc2)nc2c1CSCC2 | 0% |  | 78.4% | 17000 nM |  | 0.086 |  |  |  |  |  | 0.4 µg/mL (≈ 1.28 µM) |  |  |  | 3.24 ×10⁻⁶ cm/s | 0.6% |  | 
8 | O=C1N(CCO)c2ccccc2C12CCN(c1nc3c(c(=O)[nH]1)CCCC3)CC2 |  |  |  | 12700 nM |  |  | 19 nM |  | 26 nM | 0.98 | 2670 nM | 78.7 µg/mL (≈ 200 µM) |  | 918 nM | > 20000 nM | 2.9 ×10⁻⁶ cm/s |  | 3400 nM | 
9 | O=C1N(CCO)c2cc(Cl)cc(Cl)c2C12CCN(c1nc3c(c(=O)[nH]1)CCCC3)CC2 |  |  |  | 2600 nM |  |  | 9 nM |  | 9.5 nM | 8.03 | 450 nM | 55.9 µg/mL (≈ 121 µM) |  | 19.8 nM | > 20000 nM | 43 ×10⁻⁶ cm/s |  | 2610 nM | 
